Test results from PubChem BioAssay (NCI).
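Assay format: 96-well plates, 48-hour exposure. Definition used: TGI = concentration required for complete inhibition of growth.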

Columns and labels:
Experiment in all cases: NCI anticancer screen, dose series, 48 h
HCT-116 colon = system: HCT-116 colon
SNB-75 CNS = system: SNB-75 CNS
UACC-257 melanoma = system: UACC-257 melanoma
LOX IMVI melanoma = system: LOX IMVI melanoma
786-0 renal = system: 786-0 renal
SNB-19 CNS = system: SNB-19 CNS
OVCAR-3 ovarian = system: OVCAR-3 ovarian
SF-268 CNS = system: SF-268 CNS
HOP-92 NSCLC = system: HOP-92 NSCLC
KM12 colon = system: KM12 colon
SK-MEL-28 melanoma = system: SK-MEL-28 melanoma
DU-145 prostate = system: DU-145 prostate
ACHN renal = system: ACHN renal
SK-OV-3 ovarian = system: SK-OV-3 ovarian
NCI/ADR-RES ovarian = system: NCI/ADR-RES ovarian
OVCAR-4 ovarian = system: OVCAR-4 ovarian
IGROV1 ovarian = system: IGROV1 ovarian
SF-539 CNS = system: SF-539 CNS
HS 578T breast = system: HS 578T breast

Row | Compound | TGI (HCT-116 colon) [µM] | TGI (SNB-75 CNS) [µM] | TGI (UACC-257 melanoma) [µM] | TGI (LOX IMVI melanoma) [µM] | TGI (786-0 renal) [µM] | TGI (SNB-19 CNS) [µM] | TGI (OVCAR-3 ovarian) [µM] | TGI (SF-268 CNS) [µM] | TGI (HOP-92 NSCLC) [µM] | TGI (KM12 colon) [µM] | TGI (SK-MEL-28 melanoma) [µM] | TGI (DU-145 prostate) [µM] | TGI (ACHN renal) [µM] | TGI (SK-OV-3 ovarian) [µM] | TGI (NCI/ADR-RES ovarian) [µM] | TGI (OVCAR-4 ovarian) [µM] | TGI (IGROV1 ovarian) [µM] | TGI (SF-539 CNS) [µM] | TGI (HS 578T breast) [µM]
1 | CC1(C)OCC(C2OC3OC(C)(C)OC3C2c2ccccc2)O1 (configuration not stated) | > 100 | > 100 | > 100 | > 100 | > 100 | > 100 | 91.7 | > 100 | 79 | > 100 | > 100 | > 100 | > 100 | > 100 | > 100 | > 100 | > 100 | > 100 | 64.4
2 | CC[C@@H](CCCCC1CC[C@H]2CC(=O)C[C@@H]12)OC (some centres not stated) | > 100 | > 100 | > 100 | > 100 | > 100 | > 100 | > 100 | > 100 | > 100 | > 100 | > 100 | > 100 | > 100 | > 100 | > 100 | > 100 | > 100 | > 100 | > 100
3 | CCOP(=O)(OCC)/C(C#N)=C/c1ccccn1 | > 100 | > 100 | > 100 | > 100 | > 100 | > 100 | > 100 | > 100 | > 100 | > 100 | > 100 | > 100 | > 100 | > 100 | > 100 | > 100 | > 100 | > 100 | > 100
4 | CO/N=C\c1ccc2c(c1)Sc1ccccc1O2 | > 100 | > 100 | > 100 | > 100 | > 100 | > 100 | > 100 | > 100 | > 100 | > 100 | > 100 | > 100 | > 100 | > 100 | > 100 | > 100 | > 100 | > 100 | 97.3
5 | COC(=O)C1Cc2c(OC)ccc(OC)c2C(O)C1C(=O)OC (configuration not stated) | > 100 | > 100 | > 100 | > 100 | > 100 | > 100 | > 100 | > 100 | > 100 | > 100 | > 100 | > 100 | > 100 | – | > 100 | > 100 | > 100 | > 100 | > 100
6 | O=C(c1cccs1)c1nccc2c1cnc1ccccc12 | > 100 | > 100 | > 100 | > 100 | > 100 | > 100 | > 100 | 98.6 | > 100 | > 100 | > 100 | > 100 | > 100 | > 100 | > 100 | > 100 | – | > 100 | > 100
7 | CCOC(=O)c1sc2c(c1OC(=O)c1cc(OC)c(OC)c(OC)c1)c(=O)n(-c1ccccc1)c(=S)n2-c1ccccc1 | > 100 | > 100 | > 100 | > 100 | > 100 | > 100 | > 100 | > 100 | 95.3 | > 100 | > 100 | > 100 | > 100 | > 100 | > 100 | > 100 | > 100 | > 100 | > 100
8 | CCOC(=O)C(=CNc1ccc(N(C2=NCC(C)S2)c2ccc(F)c(Cl)c2)cc1)C(=O)OCC (configuration not stated) | 31.4 | 43.7 | 34 | 34.5 | 33.2 | 54.5 | 51.8 | 55.3 | 36.1 | 33.6 | 42.5 | 43.9 | 39.8 | 70.7 | 33.7 | 65.3 | 44.5 | 46.4 | 55.3
9 | CC(C)(C)C(=O)Oc1ccc(/C=C/C(=O)c2ccc(OC(=O)C(C)(C)C)cc2)cc1 | 71.4 | > 100 | > 100 | > 100 | > 100 | > 100 | 72 | > 100 | > 100 | 38.5 | > 100 | > 100 | > 100 | > 100 | > 100 | > 100 | > 100 | > 100 | 86.9
10 | COc1cc(/C=N/N=C(\N)NO)cc(OC)c1OC | > 100 | – | > 100 | > 100 | 39.2 | > 100 | > 100 | > 100 | > 100 | > 100 | > 100 | > 100 | 72 | > 100 | 36.3 | > 100 | > 100 | 75.7 | > 100
11 | COc1cc(C(=O)Oc2c(C(C)=O)sc3c2c(=O)n(-c2ccccc2)c(=S)n3-c2ccccc2)cc(OC)c1OC | 36.2 | 50.1 | 68.3 | 40.1 | 55.2 | 68 | 62.2 | 77.4 | 55.8 | 50.8 | 49.5 | 50.6 | 66 | > 100 | 43.5 | 64.2 | 43.5 | 32.5 | 74.4
12 | c1ccc2cc3c(NC4=NCCO4)cccc3cc2c1 | > 100 | > 100 | > 100 | 95 | > 100 | > 100 | > 100 | > 100 | 74 | > 100 | > 100 | > 100 | > 100 | > 100 | > 100 | > 100 | > 100 | > 100 | > 100
13 | CC(C)(C)OC(=O)N1NC(c2ccccc2)CC1c1ccccc1 (configuration not stated) | > 100 | 76.7 | > 100 | – | > 100 | – | > 100 | > 100 | > 100 | 41.9 | – | > 100 | 68.6 | > 100 | 47.9 | – | – | > 100 | > 100
14 | O=C1C[C@@]23CCC4(CC2CCC[C@H]3O1)OCCO4 (some centres not stated) | > 100 | – | > 100 | > 100 | > 100 | > 100 | > 100 | > 100 | > 100 | > 100 | > 100 | > 100 | > 100 | > 100 | > 100 | > 100 | > 100 | > 100 | > 100
15 | Nc1ccccc1C#CC(=O)c1cccc(C(F)(F)F)c1 | > 100 | 27.4 | 29.5 | 4.02 | 4.68 | 27.6 | 14.7 | 5.88 | 4.84 | 82.1 | – | 37.1 | – | 28.6 | 47.3 | 5.51 | 1.99 | 10.9 | 6.47
16 | COc1ccc(-c2c(-c3ccc(OC)cc3)n3c(=O)n(C)c(=O)n23)cc1 | > 100 | > 100 | > 100 | > 100 | > 100 | 97.7 | 51.6 | – | 76 | > 100 | > 100 | 65.2 | > 100 | > 100 | 89.9 | > 100 | > 100 | 72.9 | –
17 | N#Cc1c(=O)c2ccccc2n2ccccc12 | > 100 | > 100 | > 100 | > 100 | > 100 | > 100 | – | > 100 | > 100 | > 100 | > 100 | > 100 | > 100 | – | > 100 | > 100 | > 100 | – | > 100
18 | CC1(C)OC(=S)N(c2ccccc2)C12C=Cc1cc3ccccc3nc1S2 (configuration not stated) | > 100 | > 100 | > 100 | > 100 | > 100 | > 100 | > 100 | > 100 | > 100 | > 100 | > 100 | – | > 100 | > 100 | – | – | > 100 | > 100 | –
19 | O=C(c1ccccc1)N1C(=O)N(c2ccccc2)C(=Nc2ccccc2)C1=Nc1ccccc1 | > 100 | > 100 | > 100 | > 100 | > 100 | > 100 | – | > 100 | > 100 | > 100 | > 100 | > 100 | > 100 | > 100 | > 100 | > 100 | > 100 | > 100 | > 100
20 | O=c1cc(-c2ccccc2)[nH]c2cc(F)cc(F)c12 | > 100 | 46.9 | > 100 | > 100 | > 100 | – | – | > 100 | > 100 | > 100 | > 100 | – | > 100 | > 100 | – | > 100 | > 100 | 85.5 | –
21 | Cn1c(=Nc2ccc(Cl)cc2)sc2ccccc21 | > 100 | > 100 | > 100 | > 100 | > 100 | > 100 | – | > 100 | 85.7 | > 100 | > 100 | > 100 | > 100 | > 100 | > 100 | > 100 | > 100 | > 100 | > 100
